Structures are written as SMILES.

The target of the assay is T1, Tet(50) (unidentified prokaryotic organism, UniProt A0A059WYP6).
T1 sequence (A0A059WYP6 1-388): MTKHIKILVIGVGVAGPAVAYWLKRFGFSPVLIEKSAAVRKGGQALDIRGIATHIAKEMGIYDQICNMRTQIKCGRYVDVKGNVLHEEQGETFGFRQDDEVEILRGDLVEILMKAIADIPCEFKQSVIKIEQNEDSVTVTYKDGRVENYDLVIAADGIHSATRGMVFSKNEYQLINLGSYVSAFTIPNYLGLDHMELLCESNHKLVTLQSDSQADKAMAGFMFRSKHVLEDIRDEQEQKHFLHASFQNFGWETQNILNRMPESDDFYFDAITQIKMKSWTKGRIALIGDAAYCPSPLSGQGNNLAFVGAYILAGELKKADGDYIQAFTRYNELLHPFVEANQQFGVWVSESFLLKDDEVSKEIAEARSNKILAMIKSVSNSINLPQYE

Usually Km stands for the concentration of substrate that gives half-maximal velocity. `CN(C)[C@@H]1C(O)=C(C(N)=O)C(=O)[C@@]2(O)C(O)=C3C(=O)c4c(O)ccc(Cl)c4[C@@](C)(O)[C@H]3C[C@@H]12` [chlortetracycline]: the Km is 6.3 µM.

The values are drawn from article PMC5478473 (Nature chemical biology, 2017).
